Patent US20250041275A1, “COMPOSITION FOR USE IN THE TREATMENT OF A DISEASE” (RAMBAM MED-TECH LTD., priority 2022, published 2025)

Assays:
[1] = system: cerulein-induced acute pancreatitis; conditions: previous studies; cited from earlier work
[2] = system: cerulein-induced acute pancreatitis; assay: cerulein-induced acute pancreatitis (AP) in WT and Hpa-Tg mice; type: in vivo; conditions: for pancreato-protective effects against AP: early (pre) or post treatment, 10 mg/mouse, FIGS. 3-4; for tolerability: 16 and 32 mg/kg doses; for severity of AP: 16 and 32 mg/kg doses i.p., pre-treatment, FIGS. 5 and 6
Description: (§1) Studies utilized wild type (WT) BALB/c mice and heparanase transgenic (Hpa-Tg) mice in which the human heparanase gene is driven by a constitutive β-actin promoter (19) in a BALB/c genetic background. Animals were fed standard mouse chow and tap water ad libitum. All experiments were approved and performed according to the Technion's guidelines of the Committee for the Supervision of Animal Experiments.
Mice were injected with either cerulein (intraperitoneally, […], 5 times at 1 hour apart) (Sigma-Aldrich), or saline (0.9% NaCl) (control group). Additional groups of mice were pretreated with either Aspirin (250 mg/kg, SC) and Trehalose (2000 mg/kg, ip) alone or combined. Additional groups of animals were pre- and post-treated with Aspirlose (10 mg/mouse). […] Finally, the inventors tested the effectivity of “Indose” and “Diclose” at various concentrations against AP. Mice were sacrificed 24 hours later, and serum samples and pancreatic tissue were collected for measurements of blood amylase and lipase levels, pancreatic index (pancreas/body weight ratio), and for histological analysis. Portion of pancreas tissues were also homogenized, and lysate samples were subjected to immunoblotting.
Pancreatic tissue samples were fixed in 10% neutral-buffered formalin progressively dehydrated in graduated alcohol and embedded in paraffin. Five-micron (5 μm) sections were stained with hematoxylin and eosin (H&E).

[3] = system: ischemia-reperfusion acute kidney injury; assay: ischemia-reperfusion (I/R) acute kidney injury (AKI) model in Hpa-Tg mice; type: in vivo; conditions: pretreatment; for expression level of NGAL in kidney / expression level of KIM-1 in kidney: female Hpa-Tg mice; for expression level of NGAL in kidney / NGAL expression in kidney: FIG. 11A; for expression level of KIM-1 in kidney: FIG. 11B; for NGAL expression in kidney: male Hpa-Tg mice; for kidney weight normalized to body weight (KW/BW): Hpa-Tg mice, 48 h after AKI, FIGS. 7A and 8A; for gross morphology and histopathology of kidneys: Indose 16 mg/kg i.p., Diclose 32 mg/kg i.p., male and female Hpa-Tg mice, FIGS. 9 and 10; for increase of blood urea nitrogen (BUN) following AKI / increase of serum creatinine (SCr) following AKI: male Hpa-Tg mice (trend persisted in females), 48 h from AKI induction
Description: as §1
(§2) Renal ischemia was induced by clamping the renal artery of both kidneys for 30 min followed by reperfusion (I/R). The inventors tested the effectivity of “Indose” and “Diclose” before induction of ischemia (e.g., “prophylactic effect” or “pre-treatment”) or after (e.g., “treating effect” or “post-treatment”), using the dosing as disclosed hereinabove. Mice were sacrificed 48 hours later, and serum samples and kidney tissue were collected for measurements of blood creatinine and urea nitrogen levels, kidney index (kidney/body weight ratio), and for histological analysis. Portion of kidney tissues were also homogenized, and lysate samples were subjected to mRNA extraction, and expression analysis of neutrophil gelatinase-associated lipocalin (NGAL) and kidney injury molecule-1 (KIM-1).
The inventors used the ischemia-reperfusion (I/R)-AKI model in mice. The pathogenesis of this disease was evaluated based on kidney edema, blood creatinine (Scr), and blood urea nitrogen (BUN) levels were determined 48 hours following AKI induction. Further, the inventors performed histopathological analysis, as well as expression analysis of the renal injury biomarkers neutrophil gelatinase-associated lipocalin (NGAL), kidney injury molecule-1 (KIM-1).
AKI was induced in the absence or presence of pretreatment with Indose (16 mg/kg, i.p.) or Diclose (32 mg/kg, i.p.), respectively in Hpa-Tg mice (males and females). Untreated Hpa-Tg male and female mice that underwent sham operation served as control group. […] In male mice pretreated with Diclose and Indose, a reduction in NGAL expression was also observed (FIG. 11A). This trend persisted in female mice although the elevation in SCr and BUN following AKI was to a lesser extent.

wild type mice = assay: acute toxicity, intraperitoneal injection in wild type mice; conditions: mouse, in vivo, ip; for mortality: 500 mg/kg
Description: (§3) Further, the inventors examined the acute toxicity of the compounds Indose and Diclose. A series of dosages: 8 mg/kg, 32 mg/kg, 64 mg/kg, 128 mg/kg, 256 mg/kg, 512 mg/kg, 768 mg/kg, 1024 mg/kg, 1,100 mg/kg, and 1,200 mg/kg were injected by intraperitoneal injection in the presence of sterile water as carrier. Each dosage was injected to a group of 5 wild type mice.

[4] = as above; conditions: mouse, in vivo, ip; intraperitoneal injection, sterile water as carrier, groups of 5 wild type mice
Description: as §3

[5] = system: ischemia-reperfusion acute kidney injury; assay: ischemia-reperfusion (I/R) acute kidney injury (AKI) model in WT FVB/N mice; type: in vivo; conditions: administered short time after induction of AKI, FIGS. 13A-13C
Description: as §2
The inventors used the ischemia-reperfusion (I/R)-AKI model in mice. The pathogenesis of this disease was evaluated based on kidney edema, blood creatinine (Scr), and blood urea nitrogen (BUN) levels were determined 48 hours following AKI induction. Further, the inventors performed histopathological analysis, as well as expression analysis of the renal injury biomarkers neutrophil gelatinase-associated lipocalin (NGAL), kidney injury molecule-1 (KIM-1). […]

[6] = WT and Hpa-Tg mice, cerulein treatment, FIG. 1

Row | SMILES | pancreas edema and inflammation, induction of cytokines and signaling molecules following cerulein administration [1] | tissue edema (histopathology of pancreas) ([2]; WT and Hpa-Tg mice exposed to cerulein, FIG. 2) | elevation in biochemical parameters (serum amylase and lipase) [2, 6] | pancreatic edema (pancreatic index, % Pancreatic weight/Body weight) [2, 6] | pancreato-protective effects against AP [2] | expression level of NGAL in kidney [3] | expression level of KIM-1 in kidney [3] | NGAL expression in kidney [3] | kidney weight normalized to body weight (KW/BW) [3] | gross morphology and histopathology of kidneys [3] | increase of blood urea nitrogen (BUN) following AKI [3] | increase of serum creatinine (SCr) following AKI [3] | toxicity (overall) (wild type mice) | mortality (wild type mice) | LD50 [4] [mg/kg] | effects on AKI, post-treatment [5] | tolerability ([2]; WT and Hpa-Tg mice) | severity of AP ([2]; WT and Hpa-Tg mice)
1 | CC(C)CCC[C@@H](C)[C@H]1CC[C@H]2[C@@H]3CC[C@H]4C[C@@H](O[C@@H]5O[C@H](COS(=O)(=O)O)[C@@H](O[C@H]6O[C@H](COS(=O)(=O)O)[C@@H](O[C@H]7O[C@H](COS(=O)(=O)O)[C@@H](O[C@H]8O[C@H](COS(=O)(=O)O)[C@@H](OS(=O)(=O)O)[C@H](OS(=O)(=O)O)[C@H]8OS(=O)(=O)O)[C@H](OS(=O)(=O)O)[C@H]7OS(=O)(=O)O)[C@H](OS(=O)(=O)O)[C@H]6OS(=O)(=O)O)[C@H](OS(=O)(=O)O)[C@H]5OS(=O)(=O)O)CC[C@]4(C)[C@H]3CC[C@]12C [PG545, reference compound] | attenuated markedly | markedly restored | markedly reduced | markedly reduced | – | – | – | – | – | – | – | – | – | – | – | – | – | –
2 | CC(=O)Oc1ccccc1C(=O)OC[C@H]1O[C@H](O[C@H]2OC(CO)[C@@H](O)[C@H](O)[C@H]2O)[C@H](O)[C@@H](O)[C@@H]1O (some centres unmarked) [Asprilose mono] | – | – | – | – | pancreato-protective effects | – | – | – | – | – | – | – | – | – | – | – | – | –
3 | Cc1c(CC(=O)OC[C@H]2O[C@H](O[C@H]3O[C@H](CO)[C@@H](O)[C@H](O)[C@H]3O)[C@H](O)[C@@H](O)[C@@H]2O)c2ccccc2n1C(=O)c1ccc(Cl)cc1 [Indose, Trehalose-Indomethacin] | – | – | – | – | – | effectively reduced | effectively reduced | reduction | significantly reduced | resembled kidneys of the ‘Sham’ control group | remarkably attenuated | remarkably attenuated | low toxicity | No mortality was observed | 900 | curative effects | well tolerated | reduced the severity of AP
4 | O=C(Cc1ccccc1Nc1c(Cl)cccc1Cl)OC[C@H]1O[C@H](O[C@H]2O[C@H](CO)[C@@H](O)[C@H](O)[C@H]2O)[C@H](O)[C@@H](O)[C@@H]1O [Diclose, Trehalose-Dichlorofenac] | – | – | – | – | – | effectively reduced | effectively reduced | reduction | significantly reduced | resembled kidneys of the ‘Sham’ control group | remarkably attenuated | remarkably attenuated | low toxicity | No mortality was observed | 780 | curative effects of AKI, with the effects of Diclose being more pronounced | well tolerated | reduced the severity of AP
5 | CC(=O)Oc1ccccc1C(=O)OCC1O[C@H](O[C@H]2O[C@H](COC(=O)c3ccccc3OC(C)=O)[C@@H](O)[C@H](O)[C@H]2O)[C@H](O)[C@@H](O)[C@@H]1O (some centres unmarked) [Asprilose dimer] | – | – | – | – | pancreato-protective effects | – | – | – | – | – | – | – | – | – | – | – | – | –
